US20030236457A1, “Method of endovascular brain mapping” (priority 2002, published 2003)
Where a name gives a salt, the structure may show the parent alone. Read-outs that look alike come from different tables or passages of the source. Ends that are not written are not given here.

Columns and labels:
brain parenchyma = details: awake patient, intra-arterial infusion; cited from earlier work
[1] = cited from earlier work
[2] = chronic subcutaneous injections; cited from earlier work
rat brain = test: Endovascular brain mapping: dye or embolic agent infused into the internal carotid artery, brains harvested to examine staining quality; format: in vivo, Sprague Dawley rats; details: ICA infusion after blood brain barrier disruption with arabinose, dye mixed with Omnipaque
Description: Generally, Sprague Dawley rats were anesthetized and vascular access obtained by ventral cervical cutdown. A catheter was introduced into the common carotid artery proximal to the ICA. All other branches were clamped temporarily with aneurysm clips, permitting flow to the ICA alone. The blood brain barrier was disrupted with a solution of arabinose. […] Tantalum powder was also tested without blood brain barrier disruption. The brains were harvested for examination of the quality of staining.
Using a carotid cutdown method, the CCA was exposed and a catheter was introduced into the lumen proximal to the ICA. A ligature secured the catheter within the vessel. The external carotid artery and occipital artery were clamped, preserving flow to the ICA.
To test the use of tantalum powder, the same procedure described above was performed without disruption of the blood brain barrier. A small amount of tantalum powder suspension was then injected under fluoroscopic visualization until the right hemispheric distribution was opacified.

[3] = cited from earlier work; remark: listed apart in the source
[4] = Table 3, solvent or buffer named
[5] = Table 1, medium in which the fluorophore is solubilised

Compound | Solubility [1, 4] | Solubility [1, 5] | further results
C=CCC1(C(C)C#CCC)C(=O)N=C(O)N(C)C1=O (racemic) [Brevital®, Methohexital Sodium; 2,4,6 (1H, 3H, 5H) Pyrimidinetrione, 1-methyl-5-(1-methyl-2-pentynyl)-5-(2-propenyl)-, (±)-, monosodium salt] | – | – | duration of temporary neurological deficits after infusion (brain parenchyma): resolve back to baseline within several minutes
NCc1ccc(-c2c3ccc(=O)cc-3oc3cc(O)ccc23)c(C(=O)O)c1 [5-(aminomethyl) fluorescein, hydrochloride] | DMF | – | –
CCCCCCCCCCCC(=O)Nc1ccc(-c2c3ccc(=O)cc-3oc3cc(O)ccc23)c(C(=O)O)c1 [5-dodecanoylamino-fluorescein] | – | CDs | –
CCCCc1ccc2n1[B-](F)(F)[N+]1=C(CCCCCCCCC(=O)O)C=CC1=C2 [C4-BODIPY ® (500/510) C9, 5-butyl-4,4-difluoro-4-bora-3a,4a-diaza-s-indacene-3-nonanoic acid] | – | CDs | –
CCN(Cc1cccc(S(=O)(=O)[O-])c1)c1ccc(C(=C2C=CC(=[N+](CC)Cc3cccc(S(=O)(=O)[O-])c3)C=C2)c2ccc(O)cc2S(=O)(=O)[O-])cc1.[Na+].[Na+] [FD & C Green #3] | – | – | induction of sarcomas [2]: induction of sarcomas; staining of the selected vascular distribution of the brain (rat brain): clearly stained both on the cortical surface; staining of the selected vascular distribution of the brain (rat brain; listed as FD&C Green #3): good staining of a selective vascular distribution
CC1=CC(C)=[N+]2C1=Cc1c(C)cc(C)n1[B-]2(F)F [Tetramethyl- BODIPY ® (505/515), 4,4-difluoro-1,3,5,7-tetramethyl-4-bora-3a,4a-diaza-s-indacene] | – | Cyclodextrins (CD) | –
FLUO-RGGRLSYSRRRESTSTGR (not fully specified (N-terminus); printed as FLUO-RGGRLSYSRRRESTSTGR) [FLUO-L-SynB1] | Phosphate | – | –
FLUO-RRLSYSRRRF (not fully specified (N-terminus); printed as FLUO-RRLSYSRRRF) [FLUO-L-SynB3] | PBS | – | –
carboxymethyl-β-cyclodextrin [CM-β-CD] | – | – | solubility in water [3]: 50 mg/mL
